Test results: patent US10188727B2, “Bifunctional molecules with antibody-recruiting and entry inhibitory activity against the human immunodeficiency virus” (YALE UNIVERSITY, priority 2009, dated 2019)
Entries after “also recorded” stand apart in the source; their conditions may differ. Read-outs that look alike come from different tables or passages of the source.

Assays:
CHO-gp120 cells [1] = assay: CDC assay (complement-dependent cytotoxicity) on Env-expressing cells; assay type: cell-based, Chinese hamster
Experimental: CDC Assay (FIG. 4 and FIG. 8)
CHO-WT or CHO-K1 cells taken from a T-75 flask (˜80% confluent), were washed once with DPBS (Gibco, 5 mL), and cells were then detached with 2.5 mM EDTA/0.5 mM EGTA in DPBS. Resulting cell suspension was centrifuged at 900 rpm for five minutes, then pellet was aspirated and re-suspended at a density of 9.00×10^5 cells/mL in Buffer E. Subsequently, cell suspension was added to prepared dilutions of ARM-H (4) (or control molecule) in Buffer E. Resulting cell mixtures were plated in triplicate (50 μL, 22,500 cells/well)□ onto 96 well plates (CoStar, black sides/clear bottom), covered with tin foil and incubated at 4° C. for 1.5 hours. To each well, 50 μL of 20% rabbit complement serum (v/v, Aldrich) and 100 μg/mL rat anti-DNP IgG (Zymed; Carlsbad, Calif.) in Buffer E was added, resulting in a 10% (v/v) complement and 50 μg/mL antibody concentration per well. Negative control wells containing only ARM-H dilutions were prepared in addition to maximum cell death controls (0.15% H2O2). Covered plate was incubated for an additional hour at 4° C. and then for 4 hours at room temperature. All control experiments were conducted following the same protocol. Cell viability was determined using the luciferase-based CellTiter-Glo Luminescent Cell Viability Assay (Promega). Complement mediated cell death and cytotoxicity was calculated as: [1−((sample-max killing)/(untreated-max killing))]×100 and plotted using GraphPad Prism. Raw data was subjected to Dixon Q-test analysis at the 90% confidence interval and statistical outliers removed accordingly^16,17. ^16. Dean, R. B.; Dixon, W. J. Anal. Chem. 1951, 23, 636-638.^17. Efstathiou, C. E. Talanta 2006, 69, 1068-1071.

MT-2 cells = assay: MT-2 cell assay, cellular toxicity in mock-infected cells (MTT); assay type: cell-based, human; details: control MT-2 cultures lacking HIV virus
Experimental: Antiviral activity and cellular toxicity were determined using the MTT colorimetric method^7,8. MT-2 cell^9,10 at a concentration of 1×10^5 cells per milliliter were infected with wild-type HIV IIIB^11,12,13 at a multiplicity of infection (MOI) of 0.1. Infected and mock-infected cells were incubated in growth medium (RPMI 1640, 10% δFBS, kanamycin) for 5 days with varying concentrations of each compound being tested in triplicate in a 96-well plate. MIT (thiazolyl blue tetrazolium bromide), a cell-permeable tetrazolium dye was then added to each well. Active mitochondria reduce the yellow tetrazolium salt to a blue formazan precipitate. After 5 h, stop solution (86% isopropanol, 4% NP-40, 10% H2O, and 0.3% concentrated HCl) was added to lyse the cells and stop the reaction. The plates were gently shaken gently overnight on a horizontal rotator, and quantitated the following morning. Cell viability was measured spectrophotometrically by quantifying the amount of purple precipitate via determining the absorbance at 595 nm using a Multiskan Plus from Labsystems (Helsinki, Finland) microplate reader. The average of these triplicate samples was then plotted versus inhibitor concentration to generate dose-response curves. […] Data were quantitated using KaleidaGraph (Synergy Software). ^7. […] Popovic, M.; Read-Connole, E.; Gallo, R. C. […] Popovic, M.; Samgadharan, M. G.; Read, E.; Gallo, R. C. […]

wild-type HIV IIIB = assay: MT-2 cell assay, antiviral activity (MTT); assay type: cell-based, HIV-1
Experimental: Antiviral activity and cellular toxicity were determined using the MTT colorimetric method^7,8. MT-2 cell^9,10 at a concentration of 1×10^5 cells per milliliter were infected with wild-type HIV IIIB^11,12,13 at a multiplicity of infection (MOI) of 0.1. Infected and mock-infected cells were incubated in growth medium (RPMI 1640, 10% δFBS, kanamycin) for 5 days with varying concentrations of each compound being tested in triplicate in a 96-well plate. MIT (thiazolyl blue tetrazolium bromide), a cell-permeable tetrazolium dye was then added to each well. Active mitochondria reduce the yellow tetrazolium salt to a blue formazan precipitate. After 5 h, stop solution (86% isopropanol, 4% NP-40, 10% H2O, and 0.3% concentrated HCl) was added to lyse the cells and stop the reaction. The plates were gently shaken gently overnight on a horizontal rotator, and quantitated the following morning. Cell viability was measured spectrophotometrically by quantifying the amount of purple precipitate via determining the absorbance at 595 nm using a Multiskan Plus from Labsystems (Helsinki, Finland) microplate reader. The average of these triplicate samples was then plotted versus inhibitor concentration to generate dose-response curves. The 50% effective concentration (EC50) and 50% cytotoxic concentration (CC50) of the compounds were defined as the concentrations required to inhibit viral replication and to reduce the number of viable cells by 50%, respectively. Positive controls were done during each set of experiments using d4T and the appropriate parent NNRTI (HI-236 or TMC-derivative). Data were quantitated using KaleidaGraph (Synergy Software). ^7. Mosmann, T. J. Immunol Methods 1983, 65, 55-63.^8. Pannecouque, C.; Daelemans, D.; Clercq, E. D. Nat Protoc. 2008, 3, 427-434.^9. Haertle, T.; Carrera, C. J.; Wasson, D. B.; Sowers, L. C.; Richman, D. D.; Carson, D. A. J. Biol Chem. 1988, 263, 5870-5875.^10. Harada, S.; Koyanagi, Y.; Yamamoto, N. Science 1985, 229, 563-566.^11. Popovic, M.; Read-Connole, E.; Gallo, R. C. […] Popovic, M.; Samgadharan, M. G.; Read, E.; Gallo, R. C. […]

CD4-gp120 interaction = CD4-gp120 interaction (Human immunodeficiency virus type 1, UniProt Q75760); assay: CD4 inhibition ELISA (competition ELISA, sCD4 binding to immobilized gp120); parameters: species or system HIV-1
Experimental: CD4 Inhibition ELISA (FIG. 2A)
This procedure was adapted from the protocol reported by Lin, et al.^14. 96 well plates (Nunc; Immuno) were coated overnight at 4° C. with soluble recombinant HIV-1 gp120JRFL (Immune Technology; Yonkers, N.Y.) at 1 μg/ml in 0.05M Buffer A (carbonate/bicarbonate, pH=9.6, Aldrich). Plates were washed with PBS (Aldrich, 1×100 μL) and then blocked with 3% nonfat milk in phosphate buffered saline solution (PBS, Aldrich) for 1 hr at room temperature. After washing with Buffer B (50 mM Tris HCl, 100 mM NaCl, 0.05% Tween-20, pH 7.4), varying concentrations of the inhibitor were added simultaneously with recombinant human T-cell CD4 (ImmunoDiagnostics, Inc; Woburn, Mass.) in Buffer C (50 mM Tris HCl, 100 mM NaCl, 1% BSA, pH 7.4) so that the final concentration/well of CD4 is 0.1 μg/mL and plates were incubated for 1 hr at room temperature. Plates were washed with Buffer B (3×100 μL) and then incubated with mouse OKT4 anti-CD4 IgG antibody (Biolegend; San Diego, Calif.) at 0.36 μg/ml in Buffer C at RT for 1 hr. Following washes with Buffer B, plates were incubated with horse radish peroxidase (HRP)-conjugated goat anti-mouse antibody (1:2500; Biolegend; San Diego, Calif.). Bound antibody was detected with 3,3,5,5-tetramethylbenzidine (TMB, Pierce Protein Research Products), the chromogenic substrate for HPR, and absorbance was read at 450 nm. […]

CHO-gp120 cells [2] = assay: Immunofluorescence microscopy, recruitment of labeled anti-DNP antibodies; assay type: cell-based, Chinese hamster; details: ARM-H plus competing ligand
Experimental: Immunofluorescence (FIG. 3)
Confluent CHO-WT (env expressing) or CHO-K1 (non-env expressing) cells were incubated on cover slips (15CIR-1D, Fisher) over 2 nights at 37° C. in 5% CO2. Cover slips were washed with DPBS (1 mL, Gibco) and then cells fixed with 4% parafomaldehyde in DPBS at 4° C. for 10 minutes. […] Cover slips then washed with Buffer E (2×70 μl) and incubated with AlexaFluor488 rabbit anti-DNP IgG antibodies (Invitrogen) at 15 μg/ml in Buffer E (70 μl) for 1 hr at 4° C. All cover slips were washed prior to mounting onto slides using Gel Mount mounting medium (Biomeda Corp.) with Buffer E and water. Corresponding competition experiments were performed in the presence of recombinant human T-cell CD4 (ImmunoDiagnostics, Inc; Woburn, Mass.), BMS-378806 (1) and DNP-PEG-alkyne (2). Cells were checked using a Zeiss Axiovert 200M fluorescence microscope equipped with a GFP filter.

CHO-K1 cells = assay: Flow cytometry detection of DNP labeling; assay type: cell-based, Chinese hamster; details: higher concentrations of labeling reagent, data not shown
Experimental: Flow Cytometry Detection of DNP Labeling (FIG. 9)
CHO-K1 cells taken from a T-75 flask (˜80% confluent), were washed once with DPBS (Gibco, 5 mL), and cells were then detached with 2.5 mM EDTA/0.5 mM EGTA in DPBS. Resulting cell suspension was centrifuged at 900 rpm for five minutes, then pellet was aspirated and re-suspended at a density of 1.40×10^6 cells/mL in F12-K growth medium. Cells were incubated with 2,4-dinitrobenzenesulfonic acid (TCI, 50 mg/mL solution in MeOH) at varying concentrations for 30 min. at room temperature. Cells centrifuged and washed with growth medium (×3) and then aliquoted (0.5 ml) into Eppendorf tubes at a cell density of 1.40×10^6 cells/mL. Cells incubated with AlexaFluor 488 conjugated rabbit anti-DNP IgG (Invitrogen) antibodies (20 μg/mL) for 1 hr at 4° C. Cells were subsequently centrifuged, washed with DPBS (3×0.5 mL), resuspended in 0.5 mL DPBS containing 150 μg of propidium iodide (to monitor cell death) and immediately analyzed for fluorescence using a FACSCalibur flow cytometer (Becton Dickinson) monitoring at least 10,000 events/measurement. Data were analyzed using FlowJo Analysis Software (Tree Star).

## C[C@@H]1CN(C(=O)c2ccccc2)CCN1C(=O)C(=O)c1c[nH]c2nccc(OCCOCCOCCOCCOCCOCCn3cc(COCCOCCOCCOCCNc4ccc([N+](=O)[O-])cc4[N+](=O)[O-])nn3)c12 [ARM-H]
CHO-gp120 cells [1]; CHO cell lines
  non specific cytotoxicity in CHO cell lines: no non specific cytotoxicity
CHO-gp120 cells [1]; CHO-gp120 cells, absence of anti-DNP antibody and complement-preserved serum
  cell death without antibody and complement: no cell death was observed
CHO-gp120 cells [1]; MT-2 entry inhibition and CDC together
  concentrations at which inhibition of HIV entry and CDC activity were both operative: 6 to 30 µM
MT-2 cells
  cytotoxicity in MT-2 cells: no observable cytotoxicity; also recorded: no non specific cytotoxicity
wild-type HIV IIIB; Human immunodeficiency virus 1, IIIB, MT2, live HIV-1, human MT-2 T-cell line, read-out: IC50, HIV-1 inhibition in MT-2 cell assay
  IC50: 6.4 µM
CD4-gp120 interaction
  IC50: ~8.7 µM

## COc1ccnc2[nH]cc(C(=O)C(=O)N3CCN(C(=O)c4ccccc4)C[C@H]3C)c12 [Formula 1, 4-benzoyl-1-(2-(4-methoxy-1H-pyrrolo(2,3-b)pyridin-3-yl)-1,2-dioxoethyl)-2-methyl-, (2R)-Piperazine, reference compound]
CHO-gp120 cells [2]
  fluorescence of ARM-H-recruited anti-DNP antibodies in the presence of competing ligand: considerably diminished
wild-type HIV IIIB; Human immunodeficiency virus 1, IIIB, MT2, read-out: IC50, HIV-1 inhibition in MT-2 cell assay
  IC50: 0.32 µM
CD4-gp120 interaction
  IC50: 1.3 µM

## C#CCOCCOCCOCCOCCNc1ccc([N+](=O)[O-])cc1[N+](=O)[O-] [Formula 2, N-(2,4-dinitrophenyl)-3,6,9,12-tetraoxapentadec-14-yn-1-amine]
CHO-gp120 cells [2]
  fluorescence of ARM-H-recruited anti-DNP antibodies in the presence of competing ligand: considerably diminished

## Cc1cn([C@H]2C=C[C@@H](CO)O2)c(=O)[nH]c1=O [d4T]
wild-type HIV IIIB; live HIV-1, human MT-2 T-cell line, read-out: IC50, HIV-1 inhibition in MT-2 cell assay
  IC50: 4.2 µM

## O=[N+]([O-])c1ccc(S(=O)(=O)O)c([N+](=O)[O-])c1 [dinitrobenzenesulfonic acid, 2,4-dinitrobenzenesulfonic acid]
CHO-K1 cells
  cell death on labeling of CHO-K1 cells: Significant cell death
